We go through twelve compounds from PubChem BioAssay (NCI).

“And” between values parts separate entries of the source, which are not always exact repeats. Equal entries are not always repeated.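 Interpolation was linear, between the two tested concentrations surrounding the appropriate level; five concentrations were tested over 48 hours in 96-well plates. GI50 is the concentration that inhibits growth by half. TGI: total growth inhibition.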

Common to all, as to experiment: NCI anticancer screen, dose series, 48 h
Test [1] has as its system HL-60(TB) leukemia.
Test [2] relates to HT29 colon.
The subject of test [3] is KM12 colon.
Test [4] has as its system LOX IMVI melanoma.
In test [5] the test system is M14 melanoma.
Test [6] concerns MDA-MB-435.
The test system of test [7] is MOLT-4 leukemia.
In test [8] the test system is PC-3 prostate.
The subject of test [9] is SK-MEL-2 melanoma.
Test [10] deals with T-47D breast.

Take `COc1cc(/C=C/C(=O)c2ccc(NC(=O)CN3CCN(c4cc5c(cc4F)c(=O)c(C(=O)O)cn5C4CC4)CC3)cc2)cc(OC)c1OC`: the GI50 is 1.75 µM in [1]; 0.285 µM in test [2]; 0.451 µM in test [3]; 0.511 µM in [4]; 1.15 µM in [5]; 0.433 µM in [6]. In addition, the GI50 was 1.27 µM in [7], 0.782 µM in test [8], 2.21 µM in test [9] and 1.67 µM in [10]. Also, the TGI in [1] was greater than 29.8 µM; in [2], 1.02 µM; in test [3], 2.31 µM; in test [4], 2.24 µM; in test [5] it was 13.6 µM; in test [7], greater than 100 µM. Also, the figures for the TGI in [8], in test [9] and in [10] were greater than 100 µM, 5.78 µM and greater than 57 µM, respectively.

With `COC(=O)C1=C(C)NC(C)=C(C(=O)OC)C1/C=C(Cl)/C=C/c1ccccc1`, the GI50 was 17.8 µM in [1]; 18.9 µM in test [2]; 18.4 µM in test [3]; 15.1 µM in [4]; 16.2 µM in test [5]; 18.8 µM in test [6]. Besides, the GI50 is 18.4 µM in [7], 18.2 µM in [8], 13.4 µM in test [9] and 42.9 µM in [10]. For the same compound, the TGI in test [1] was 41.2 µM; in [2], 44.9 µM; in test [3], 39.5 µM; in [4] it was 28.8 µM; in test [5], 30.5 µM; in test [6], 37.1 µM. Besides, the TGI in test [7] is 41 µM; in test [8] it was 38.3 µM; in test [9], 50.4 µM; in test [10], greater than 100 µM.

For the compound `NC(=O)c1ccc2nc(-c3ccc(Oc4ccc(Cl)cc4)cc3)[nH]c2c1`, the GI50 in test [1] was 12.4 µM and 17.3 µM; in test [2], 21.6 µM and 12.3 µM; in test [3] it was 65 µM and 13.9 µM; in [4] it was 17.9 µM and 15.6 µM; in test [5], 19.9 µM and 14.8 µM; in [6] it was 34.4 µM and 14.5 µM. The GI50 in test [7] is 28.6 µM and 11.5 µM; in [8], 55.3 µM and 11.2 µM; in [9], 18.3 µM and 21.2 µM. The TGI in [1] was 58.7 µM and 41.2 µM; in test [2], 75 µM and 28.1 µM; in [3], 75 µM and 31.3 µM; in test [4], 75 µM and 36.7 µM; in test [5], 75 µM and 29.8 µM; in [6], 75 µM and 31.2 µM. Further, the TGI in [7] was 75 µM and 33.3 µM; in [8], 75 µM and 25.5 µM; in test [9], 75 µM and 40.2 µM; in test [10], > 75 µM and 20.7 µM.

Consider `Nc1nc(-c2ccc(F)cc2)c(-c2ccc3ncccc3n2)s1`, for which the GI50 is greater than 25 µM in test [1]; 16.3 µM in [2]; greater than 25 µM in test [3]; 18 µM in test [4]; greater than 25 µM in test [5]; greater than 25 µM in test [6]. Further, the GI50 in [7] is 17.4 µM; in [8], 13.5 µM; in test [9] it was greater than 25 µM; in test [10], 4.32 µM. The TGI in [1], in test [2], in [3], in test [4], in test [5] and in test [6] was greater than 25 µM in each case. Also, the TGI in [7], in [8], in test [9] and in test [10] was greater than 25 µM throughout.

As to `COc1cc(C2=C(C#Cc3ccccc3)COC2=O)cc(OC)c1OC`, the GI50 in test [1] is 0.246 µM; in [2], 3.02 µM; in test [3] it was 1.87 µM; in test [4], 0.738 µM; in test [5], 1.77 µM; in test [6], 0.302 µM. Besides, the GI50 in [7] was 30.1 µM; in test [8] it was 1.05 µM; in test [9], 5.35 µM; in test [10], 13.3 µM. The TGI in test [1] is 3.36 µM; in test [2], greater than 100 µM; in [3], 10.5 µM; in [4], 3.92 µM; in [5], 11.7 µM; in [7], greater than 100 µM. In addition, the TGI in [8] is 20.3 µM; in [9], greater than 90.9 µM; in test [10] it was greater than 100 µM.

Turning to `C=C1CCC2C(C)(C)CCC[C@]2(C)[C@H]1CO` (some centres not stated), the GI50 in test [1] was 15.8 µM; in [2], 52.7 µM; in test [3], 87.7 µM; in test [4], 24.9 µM; in [5] it was 71.8 µM; in test [6], 43.2 µM. Moreover, the GI50 was 73.2 µM in test [7], 65.8 µM in [8], greater than 100 µM in [9] and 41.7 µM in test [10]. Moreover, the TGI in [1] is greater than 100 µM; in test [2], greater than 100 µM; in [3], greater than 100 µM; in test [4], 70.2 µM; in test [5], greater than 100 µM; in [6] it was greater than 100 µM. The TGI in test [7], in test [8], in test [9] and in test [10] was greater than 100 µM in each case.

In the case of `O=C1c2ccccc2C(=O)c2c1ccc(C1C(=O)c3ccccc3C1=O)c2-c1c(C2C(=O)c3ccccc3C2=O)ccc2c1C(=O)c1ccccc1C2=O`, the TGI in test [1], in test [2], in test [3], in test [4], in test [5] and in [6] was greater than 100 µM throughout. Moreover, the TGI in test [7] was 82.5 µM; in test [8], greater than 100 µM; in test [9] it was greater than 100 µM; in test [10], greater than 100 µM.

Take `COc1ccc2c(c1)C(=O)c1c-2c(Nc2ccc(Cl)cc2)nc2ccccc12`: the GI50 is greater than 100 µM in test [1]; 27.5 µM in [2]; 50 µM in test [3]; 14.2 µM in test [4]; 31 µM in test [5]; 38.6 µM in test [6]. In addition, the GI50 in [7] was 27.5 µM; in test [8] it was 15.5 µM; in test [9] it was 17 µM; in test [10], 17.8 µM. In addition, the TGI was greater than 100 µM in test [1]; greater than 100 µM in [2]; greater than 100 µM in test [3]; 54.9 µM in test [4]; greater than 100 µM in test [5]; greater than 100 µM in [6]. Moreover, the TGI was greater than 100 µM in test [7], 63.3 µM in test [8], 56.1 µM in [9] and greater than 100 µM in test [10].

For `Cc1cccc2c(=O)c3c(sc12)c(NCCNCCO)nc1ccccc13`, the GI50 is 1.89 µM in test [1]; 1.4 µM in test [2]; 1.64 µM in [3]; 1.5 µM in test [4]; 1.68 µM in test [5]; 1.75 µM in test [6]. Further, the GI50 in test [7] was 1.53 µM; in [8], 1.3 µM; in test [9], 1.78 µM; in test [10], 1.33 µM. Besides, the TGI in test [1] came out at 3.59 µM; in test [2], 3.13 µM; in test [3], 3.19 µM; in [4], 2.92 µM; in test [5] it was 3.37 µM; in test [6], 3.25 µM. Moreover, the TGI was 3.21 µM in [7], 2.73 µM in test [8], 3.44 µM in test [9] and 3.13 µM in test [10].

In the case of `Cc1occc1C(=S)Nc1ccc(Cl)c(C(=O)OC(C)C2CC2)c1` (configuration not stated), the TGI in test [1] turned out to be 54.1 µM; in test [2], 49 µM; in test [3], 39.9 µM; in test [4] it was 49.5 µM; in test [5], 53.4 µM; in test [6], 66.2 µM. Moreover, the TGI in [7] is 57.5 µM; in test [8], 41.3 µM; in test [9], 38.4 µM; in test [10], greater than 100 µM.

For the compound `CCNC(=O)c1cc2c(-c3cc(C(C)(C)O)ccc3Oc3c(C)cc(F)cc3C)cn(C)c(=O)c2[nH]1`, the GI50 was 0.393 µM in test [1]; 1.12 µM in test [2]; 1.87 µM in test [3]; 0.922 µM in [4]; 1.46 µM in test [5]; 1.41 µM in test [6]. The GI50 is 2.36 µM in test [7], 2.42 µM in test [8], 2.92 µM in test [9] and 1.08 µM in test [10]. Moreover, the TGI in test [1] was determined as 4.88 µM; in test [2], 15 µM; in [3], 15.8 µM; in [4] it was 2.74 µM; in test [5] it was 14.2 µM; in [6], 14.3 µM. Besides, the TGI in [7] came out at 10.2 µM; in test [8] it was 13.9 µM; in test [9], 15 µM; in test [10] it was 18 µM.

Take `CCN(C(=O)c1cc(F)ccc1Oc1cncnc1N1CC2(CCN(CC3CCC(NS(=O)(=O)CC)CC3)CC2)C1)C(C)C` (configuration not stated): the GI50 in test [1], in [2], in [3], in test [4], in [5] and in test [6] was greater than 100 µM each time. Also, the GI50 in test [7], in test [8], in [9] and in [10] was greater than 100 µM in each case. Moreover, the TGI in [1], in test [2], in test [3], in test [4], in test [5] and in test [6] was greater than 100 µM throughout. The TGI in test [7], in test [8], in test [9] and in [10] was greater than 100 µM throughout.
